In patent publication US20140271584A1, “Methods and Compositions for Direct Reprogramming of Somatic Cells to Stem Cells, and Uses of these Cells” (THE RESEARCH FOUNDATION FOR THE STATE UNIVERSITY OF NEW YORK, priority 2013, published 2014):

Test system: AF cells
Test: Colony formation of OCT4 lentivirus-transduced AF cells in ES or endothelial cell medium
Type: cell-based, human
Description: Transduction via integrating plasmid. Lentivirus based vectors carrying human SOX2 or OCT4 gene, or GFP only gene, each expressed under control of either the SFFV promoter or EF1α promoter, were packaged using the 293FT cell line (Invitrogen/Life Technologies, Inc.) to produce lentivirus. The viruses were concentrated by centrifugation and stored at −80° C. One day before infection, tissue culture dishes were coated with poly-L-ornithine (PLO) and laminin AF, BM, or HFF cells were seeded at a density of 15,000 cells/cm^2. Lentiviruses were added at a MOI of 10-100 in the presence of 8 μg/ml polybrene (EMD Millipore, Billerica, Mass.) for 6 hours. Efficiency was measured after 24-48 hours by expression of green fluorescence.
After viral transduction, cells were transferred to human ES (embryonic stem cell) medium (supplemented with 20% Knockout Serum replacement, 2 mM glutamine, 0.1 mM non-essential amino acids, 10 ng/ml bFGF, 100 μM β-Mercaptoethanol) or endothelial cell medium, such as EGM2 (Lonza, Inc.).

SMILES	increase of the efficiency of colony formation (accelerated and increased) (0.1 mM in the culture media)	increase of the efficiency of colony formation (accelerated and increased) (10 μM in the culture media)
Nc1ncnc2c1nc(Br)n2[C@@H]1O[C@@H]2COP(=O)(O)O[C@H]2[C@H]1O [8-Br-cAMP, (1S,6R,8R,9R)-8-(6-amino-8-bromopurin-9-yl)-3-hydroxy-3-oxo-2,4,7-trioxa-3λ5-phosphabicyclo[4.3.0]nonan-9-ol]	approximately 15%	
Cc1cccc(-c2n[nH]cc2-c2ccc3ncccc3n2)n1 [compound 616452, 2-(3-(6-Methylpyridin-2-yl)-1H-pyrazol-4-yl)-1,5-naphthyridine]		approximately 15%
